What was measured:
[1] = biological target: T1, es (or ENT1) facilitated diffusion nucleoside transport system (Homo sapiens, UniProt Q99808); experiment: Inhibition of Z potentiation of [3H]MTX uptake by es nucleoside transporter inhibitors; type: cell-based; details: [Z] 500 μM, HBSS
T1 construct: this is the only nucleoside transporter present in CCRF-CEM cells; endogenous in cells; host or cells: CCRF-CEM (parental), in HBSS
T1 sequence (Q99808 1-456): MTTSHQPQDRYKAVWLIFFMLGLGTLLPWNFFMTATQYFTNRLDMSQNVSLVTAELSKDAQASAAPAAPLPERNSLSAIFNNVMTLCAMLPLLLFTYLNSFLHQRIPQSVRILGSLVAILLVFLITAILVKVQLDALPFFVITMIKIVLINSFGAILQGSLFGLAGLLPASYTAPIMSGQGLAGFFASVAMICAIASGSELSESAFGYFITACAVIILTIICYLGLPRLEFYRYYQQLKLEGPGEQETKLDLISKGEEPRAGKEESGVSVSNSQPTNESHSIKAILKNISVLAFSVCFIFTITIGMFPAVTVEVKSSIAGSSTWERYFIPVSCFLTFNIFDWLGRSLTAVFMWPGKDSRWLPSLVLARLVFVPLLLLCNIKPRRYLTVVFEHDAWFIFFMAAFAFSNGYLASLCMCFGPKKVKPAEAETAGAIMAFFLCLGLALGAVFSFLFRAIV

CCRF-CEM cells [2] = experiment: [3H]MTX efflux from CCRF-CEM cells
CCRF-CEM cells [3] = experiment: [3H]MTX uptake (initial velocity and 30 min accumulation) in CCRF-CEM cells; type: cell-based, human; details: for Q10 for extent of [3H]MTX uptake at 30 min / Q10 for vi of [3H]MTX uptake (37° vs. 27°): 1 μM TMTX; for Vmax/Kt from vi (0-5 min) data: 1-10 μM MTX
Description: (§1) Quantitation of folate and antifolate uptake. The method is essentially as follows. Briefly, logarithmically growing (3-5×10^5/ml) CCRF-CEM cells were harvested at room temperature by centrifugation at 1000×g for 5 min. After washing with the appropriate medium, cells were suspended at ≈2×10^7 cells/ml for use in transport studies. […] Anion-free MHS contains 250 mM sucrose and 20 mM HEPES, titrated to pH 7.4 with MgO. […] Uptake was measured as a function of time for 30 min (for rate and extent measurements) or over 5 min (studies requiring initial velocities). […] Uptake was terminated by diluting 100 μL samples into 1 ml of iced 0.9% NaCl. […] The supernatant was aspirated. The cell pellet was washed once with 1 ml iced 0.9% NaCl and centrifuged as above. The washed pellet was solubilized in 1 ml of 0.3% Triton X-100 by incubation for 60 min at 37° C. The solubilized pellet was transferred to a scintillation vial, 10 ml of Liquiscint (National Diagnostics, Atlanta, Ga.) was added and radioactivity was quantitated in a Beckman Model LS6500 liquid scintillation counter. Separate samples at the longest incubation time used in a particular experiment were harvested for HPLC analysis of intracellular contents as above, except that after the second wash the pellets were extracted with 1 ml boiling 0.1 M Na-phosphate, pH 5.5. The extract was clarified by centrifugation and the supernatant was filtered through an MPS-1 filter unit (Amicon) prior to HPLC analysis.

CCRF-CEM cells [4] = experiment: [3H]leucovorin uptake in CCRF-CEM cells; type: cell-based, human; details: pre-incubation with Z alone, 1 μM [3H]LV
Description: as §1

[5] = biological target: T2, reduced folate carrier (RFC) (Homo sapiens, UniProt P41440); experiment: Kinetic constants for influx of [3H]MTX by CCRF-CEM cells; type: cell-based
T2 construct: endogenous in cells; host or cells: CCRF-CEM (parental)
T2 sequence (P41440 1-591): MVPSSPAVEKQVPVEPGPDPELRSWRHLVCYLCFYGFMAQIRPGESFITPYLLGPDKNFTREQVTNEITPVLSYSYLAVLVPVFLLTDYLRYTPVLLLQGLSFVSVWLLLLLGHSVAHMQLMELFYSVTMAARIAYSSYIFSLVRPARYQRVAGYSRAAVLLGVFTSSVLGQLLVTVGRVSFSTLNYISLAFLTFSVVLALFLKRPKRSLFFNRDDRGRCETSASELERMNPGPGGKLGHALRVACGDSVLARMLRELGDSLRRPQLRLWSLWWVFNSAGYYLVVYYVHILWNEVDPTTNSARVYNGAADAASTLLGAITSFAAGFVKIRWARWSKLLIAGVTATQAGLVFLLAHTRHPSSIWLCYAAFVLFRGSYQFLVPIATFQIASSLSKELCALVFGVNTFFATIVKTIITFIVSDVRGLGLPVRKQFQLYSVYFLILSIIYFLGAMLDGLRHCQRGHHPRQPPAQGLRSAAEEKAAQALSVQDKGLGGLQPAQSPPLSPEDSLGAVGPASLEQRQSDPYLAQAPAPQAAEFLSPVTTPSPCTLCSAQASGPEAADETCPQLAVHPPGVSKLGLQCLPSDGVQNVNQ
Description: as §1
Inhibition of the vi of uptake was measured after pre-incubation of CCRF-CEM cells either with TMTX alone (measuring inhibition at the RFC) or with TMTX+Z (measuring inhibition during Z potentiation). […] All studies were carried out in standard transport medium. Inhibitory potency was measured in two series of experiments and AMT was included in each series as an internal control. Values are average±range of two determinations. […] Values are average±range for duplicate determinations.

[6] = tested on: CCRF-CEM human leukemia cells; experiment: Synthesis of methotrexate polyglutamates by CCRF-CEM cells; type: cell-based
Description: MTX polyglutamate synthesis. […] At the end of the exposure cells were rapidly chilled to 4 degrees C., harvested by centrifugation at 1000×g for 5 min, washed twice with iced 0.9% NaCl by centrifugation in the same manner. One mL of boiling 50 mM Na-phosphate, pH 5.5 was added, the pellet was triturated and the sample boiled for 5 min. The sample was rapidly cooled to 4 degrees C. Debris was removed by centrifugation as above. The supernatant was further clarified by centrifugation through an Amicon MPS-1 filter unit. […] A suitable volume was injected onto a reversed-phase HPLC column (C18) and eluted with a gradient of from 4-14% acetonitrile over about 43 min. One min fractions were collected and, after addition of 10 ml scintillation fluid, were quantitated by liquid scintillation counting.

[7] = 500 μM Z, 4 hr exposure to 2 μM [3H]MTX
[8] = influx of [3H]MTX, pre-incubation with solvent (MTX alone), 1 μM TMTX, or 1 μM TMTX + 0.5 mM Z
[9] = 4 hr exposure to 2 μM [3H]MTX, Z 500 μM where present

In the case of NC(=O)c1ncn([C@@H]2O[C@H](CO)[C@@H](O)[C@H]2O)c1N [Z, 5-amino-4-imidazolecarboxamide riboside], the “Rel Corrected 30 min accumulation (relative to +Z, no inhibitor)” value [1] is reported as 1, the “Relative Corrected vi (relative to +Z, no inhibitor)” value [1] is reported as 1 and the “Accumulation at 30 min” value ([1]; no inhibitor) is reported as 108.3 pmol. For the same molecule, the “Corrected 30 min accumulation (accum +Z minus accum −Z with same inhibitor)” value ([1]; no inhibitor) was 91.3, the “Corrected vi (rate +Z minus rate −Z with same inhibitor)” value ([1]; no inhibitor) was 4.25 and the vi ([1]; no inhibitor) was 5.65 pmol/min. The “Effect on MTX efflux rates” value (CCRF-CEM cells [2]; 0.5 mM Z during uptake and/or efflux) was “No significant difference”, the “Potentiation of 30 min accumulation (highest)” value (CCRF-CEM cells [3]; 0.5 mM Z, 10 μM [3H]MTX) was 6 fold and the “Potentiation of accumulation at 30 min” value (CCRF-CEM cells [3]; 0.5 mM Z, HBSS) was “≈ 4 fold”. For the same molecule, the “Potentiation of accumulation at 30 min” value (CCRF-CEM cells [3]; 0.5 mM Z, MHS) was “≈ 2 fold”, the “Potentiation of accumulation at 30 min” value (CCRF-CEM cells [3]; 0.5 mM Z, standard medium) was “≈ 2 fold” and the “Effect on initial influx velocity (vi; 0-5 min)” value (CCRF-CEM cells [3]; Z added 5 min before 2 μM [3H]MTX) was “does not affect vi”. The “Delay before potentiation of [3H]MTX uptake” value (CCRF-CEM cells [3]; Z added 10 min after [3H]MTX, data not shown) was no less than 5 min, the “Increase of MTX accumulation at 30 min” value (CCRF-CEM cells [3]; Z at 0.5-1.0 mM, 2 μM [3H]MTX) was no less than 3 fold and the “Onset of potentiation of [3H]MTX uptake” value (CCRF-CEM cells [3]; Z present with TMTX in 10 min preincubation) was “no delay in potentiation”. For the same molecule, the “Delay before the onset of Z potentiation” value (CCRF-CEM cells [3]; all levels of MTX (1-10 μM), 0.5 mM Z) was “≈ 10 min”, the “Potentiation of [3H]LV uptake” value (CCRF-CEM cells [4]) was “does not potentiate” and the “Increase of Vmax of MTX influx” value ([5]; Z addition in presence of TMTX) was “≈ 3 fold”. For the same molecule, the “Increase of MTX polyglutamates (n≧2) accumulation” value [6, 7] was 3.5 fold, the “Increase of longer MTX polyglutamates (n≧3)” value [6, 7] was 6 fold and the “Increase of total drug accumulation” value [6, 7] was 3 fold. The “MTXGn accumulation at 1 and 10 μM [3H]MTX” value ([6]; 500 μM Z, data not shown) was “Increased MTXGn accumulation” and the “Drug retained after 2 hr efflux following 4 hr uptake” value ([6]; cells initially treated with Z, data not shown) was “much higher levels of drug”.
In the case of CN(Cc1cnc2nc(N)nc(N)c2n1)c1ccc(C(=O)N[C@@H](CCC(=O)O)C(=O)O)cc1 [MTX, 4-amino-10-methylpteroylglutamic acid], the “Efflux t1/2” value (CCRF-CEM cells [2]; loading and efflux each ±0.5 mM Z (cross-over), 2 μM [3H]MTX) is reported as 14.6 to 18.7 min, the “Intracellular radiolabel that is MTX at 30 min (HPLC)” value (CCRF-CEM cells [3]; absence of Z) is reported as 86% and the “Intracellular radiolabel that is MTX-γ-Glu at 30 min (HPLC)” value (CCRF-CEM cells [3]; absence of Z) is reported as 12%. For the same molecule, the “Q10 for extent of [3H]MTX uptake at 30 min” value (CCRF-CEM cells [3]; absence of Z) was 3.45±0.15, the “Q10 for vi of [3H]MTX uptake (37° vs. 27°)” value (CCRF-CEM cells [3]; absence of Z) was 4.6±0.3 and the “Vmax/Kt from vi (0-5 min) data” value (CCRF-CEM cells [3]; absence of Z) was 0.44. For the same molecule, the “Q10 for extent of [3H]MTX uptake at 30 min” value (CCRF-CEM cells [3]; presence of 0.5 mM Z) was 3.65±0.15, the “Q10 for vi of [3H]MTX uptake (37° vs. 27°)” value (CCRF-CEM cells [3]; presence of 0.5 mM Z) was 5.9±0.1 and the “[MTX]i/[MTX]e at 30 min” value (CCRF-CEM cells [3]; presence of 0.5 mM Z, all MTX concentrations 1-10 μM, assuming 0.55 pL/cell) was no less than 1.9. The “Vmax/Kt from vi (0-5 min) data” value (CCRF-CEM cells [3]; presence of 0.5 mM Z) was 0.47, the “Intracellular radiolabel that is MTX at 30 min (HPLC)” value (CCRF-CEM cells [3]; presence of Z) was 83% and the “Intracellular radiolabel that is MTX-γ-(Glu)2 at 30 min (HPLC)” value (CCRF-CEM cells [3]; presence of Z) was less than 1%. The “Intracellular radiolabel that is MTX-γ-Glu at 30 min (HPLC)” value (CCRF-CEM cells [3]; presence of Z) was 7.5%, the Kt [5, 8] was 3.0 ± 0.8 µM and the Vmax [5, 8] was 5.8 ± 0.9 pmol/min/10^7 cells. The “4-NH2-10-CH3-PteGlun, N ≧ 3” value [6, 9] was 3.8 pmol/10^7 cells, the “4-NH2-10-CH3-PteGlun, n = 1 (MTX)” value [6, 9] was 26.2 pmol/10^7 cells and the “4-NH2-10-CH3-PteGlun, n = 2” value [6, 9] was 23.8 pmol/10^7 cells. For the same molecule, the “4-NH2-10-CH3-PteGlun, n = 3” value [6, 9] was 2.3 pmol/10^7 cells, the “4-NH2-10-CH3-PteGlun, n = 4” value [6, 9] was 1.4 pmol/10^7 cells and the “4-NH2-10-CH3-PteGlun, n = 5” value [6, 9] was 0.1 pmol/10^7 cells. The “4-NH2-10-CH3-PteGlun, n ≧ 2” value [6, 9] was 27.6 pmol/10^7 cells and the Total drug [6, 9] was 53.8 pmol/10^7 cells.

— patent publication US7687473B2, “5-amino-4-imidazolecarboxamide riboside and its nucleobase as potentiators of antifolate transport and metabolism” (Health Research, Inc., priority 2005, dated 2010)
